Values quoted from earlier work as cited in patent US20160143918A1, “DRUG RELEASING AGENT BASED ON beta-SITOSTEROL AND A PREPARATION METHOD THEREOF” (School of Medicine Jiaying University, priority 2014, published 2016).

Question: Which “solubility in organic solvents” value (organic solvents) does the source give for `CC[C@H](CC[C@@H](C)[C@H]1CC[C@H]2[C@@H]3CC=C4C[C@@H](O)CC[C@]4(C)[C@H]3CC[C@]12C)C(C)C` [β-sitosterol] here?
Answer: soluble in organic solvents

Question: And the solubility in water (water)?
Answer: insoluble in water
